In patent US20230085307A1, “PYRIDAZINONE COMPOUND AND HERBICIDE” (NISSAN CHEMICAL CORPORATION, priority 2019, published 2023):

Key:
[1] = tested on: barnyard grass; assay: Test Example 5: herbicidal effect by foliage application, plastic box (Table 20, symbol H); type: in vivo, barnyard grass (Echinochloa crus-galli); settings: foliage application, 320 g/ha
Outline: (§1)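 Sow seeds spot-wise in sterilized diluvial soil; cover with ~1.5 cm soil. Grow 14 days in greenhouse, 25° C. to 30° C. Spray foliage with emulsion diluted to predetermined amount. Rate effect after 3 weeks.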

[2] = tested on: false cleavers; assay: Test Example 5: herbicidal effect by foliage application, plastic box (Table 20, symbol Q); type: in vivo, false cleavers (Galium spurium); settings: foliage application, 320 g/ha
Outline: as §1

[3] = tested on: late watergrass; assay: Test Example 1: herbicidal activity, application before weed generation under submerged conditions (Table 16, symbol A); type: in vivo, late watergrass (Echinochloa oryzicola); settings: 320 g/ha applied herbicide
Outline: (§2)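 Emulsion formulation, water-diluted to set dose, was put onto the flooded surface (4 cm depth, alluvial soil) the same day weeds were sown and 2.5-leaf rice transplanted. After 3 weeks at 25-30 °C under glass, each species was rated 0 (≤5% kill) to 5 (≥90% kill).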

[4] = tested on: green foxtail; assay: Test Example 4: herbicidal effect by soil treatment (Table 19, symbol G); type: in vivo, green foxtail (Setaria viridis)
Outline: (§3)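 Applied as a water-diluted emulsion, the compound was sprayed onto soil covering newly sown seeds. Evaluation came three weeks after application, in a greenhouse held at 25° C. to 30° C.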

[5] = tested on: Italian ryegrass; assay: Test Example 4: herbicidal effect by soil treatment (Table 19, symbol K); type: in vivo, Italian ryegrass (Lolium multiflorum)
Outline: as §3

[6] = tested on: velvetleaf; assay: Test Example 4: herbicidal effect by soil treatment (Table 19, symbol M); type: in vivo, velvetleaf (Abutilon theophrasti)
Outline: as §3

[7] = tested on: lambsquarters; assay: Test Example 5: herbicidal effect by foliage application, plastic box (Table 20, symbol O); type: in vivo, lambsquarters (Chenopodium album); settings: foliage application, 320 g/ha
Outline: as §1

[8] = tested on: oval-leafed pondweed; assay: Test Example 1: herbicidal activity, application before weed generation under submerged conditions (Table 16, symbol C); type: in vivo, oval-leafed pondweed (Monochoria vaginalis); settings: 320 g/ha applied herbicide
Outline: as §2

[9] = tested on: windgrass; assay: Test Example 5: herbicidal effect by foliage application, plastic box (Table 20, symbol L); type: in vivo, windgrass (Apera spica-venti); settings: foliage application, 320 g/ha, 3 weeks after application
Outline: as §1

[10] = tested on: wild oat; assay: Test Example 5: herbicidal effect by foliage application, plastic box (Table 20, symbol I); type: in vivo, wild oat (Avena fatua); settings: foliage application, 320 g/ha
Outline: as §1

[11] = tested on: southern crabgrass; assay: Test Example 5: herbicidal effect by foliage application, plastic box (Table 20, symbol F); type: in vivo, southern crabgrass (Digitaria ciliaris); settings: foliage application, 320 g/ha
Outline: as §1

[12] = tested on: barnyard grass; assay: Test Example 3: herbicidal effect by foliage application, Wagner pot (Table 18, symbol H); type: in vivo, barnyard grass (Echinochloa crus-galli)
Outline: (§4)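 Plants were sown in alluvial soil held under 0.1–0.5 cm standing water and grown 14 days in a greenhouse at 25–30 °C. An emulsifiable formulation, water-diluted to the set dose, was then sprayed onto the foliage, and effects were scored three weeks later using previously defined criteria.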

[13] = tested on: wild oat; assay: Test Example 4: herbicidal effect by soil treatment (Table 19, symbol I); type: in vivo, wild oat (Avena fatua)
Outline: as §3

[14] = tested on: Japanese bulrush; assay: Test Example 1: herbicidal activity, application before weed generation under submerged conditions (Table 16, symbol B); type: in vivo, Japanese bulrush (Schoenoplectus juncoides); settings: 320 g/ha applied herbicide
Outline: as §2

[15] = tested on: persian speedwell; assay: Test Example 4: herbicidal effect by soil treatment (Table 19, symbol R); type: in vivo, Persian speedwell (Veronica persica)
Outline: as §3

[16] = tested on: redroot pigweed; assay: Test Example 4: herbicidal effect by soil treatment (Table 19, symbol N); type: in vivo, redroot pigweed (Amaranthus retroflexus)
Outline: as §3

[17] = tested on: green foxtail; assay: Test Example 5: herbicidal effect by foliage application, plastic box (Table 20, symbol G); type: in vivo, green foxtail (Setaria viridis); settings: foliage application, 320 g/ha
Outline: as §1

[18] = tested on: chickweed; assay: Test Example 4: herbicidal effect by soil treatment (Table 19, symbol P); type: in vivo, common chickweed (Stellaria media)
Outline: as §3

[19] = tested on: windgrass; assay: Test Example 4: herbicidal effect by soil treatment (Table 19, symbol L); type: in vivo, windgrass (Apera spica-venti)
Outline: as §3

[20] = tested on: Italian ryegrass; assay: Test Example 5: herbicidal effect by foliage application, plastic box (Table 20, symbol K); type: in vivo, Italian ryegrass (Lolium multiflorum); settings: foliage application, 320 g/ha
Outline: as §1

[21] = tested on: blackgrass; assay: Test Example 5: herbicidal effect by foliage application, plastic box (Table 20, symbol J); type: in vivo, blackgrass (Alopecurus myosuroides); settings: foliage application, 320 g/ha
Outline: as §1

[22] = tested on: persian speedwell; assay: Test Example 5: herbicidal effect by foliage application, plastic box (Table 20, symbol R); type: in vivo, Persian speedwell (Veronica persica); settings: foliage application, 320 g/ha
Outline: as §1

[23] = tested on: false cleavers; assay: Test Example 4: herbicidal effect by soil treatment (Table 19, symbol Q); type: in vivo, false cleavers (Galium spurium)
Outline: as §3

[24] = tested on: Chinese sprangletop; assay: Test Example 3: herbicidal effect by foliage application, Wagner pot (Table 18, symbol D); type: in vivo, chinese sprangletop (Leptochloa chinensis)
Outline: as §4

[25] = tested on: rice flat sedge; assay: Test Example 3: herbicidal effect by foliage application, Wagner pot (Table 18, symbol E); type: in vivo, rice flat sedge (Cyperus iria)
Outline: as §4

[26] = tested on: barnyard grass; assay: Test Example 4: herbicidal effect by soil treatment (Table 19, symbol H); type: in vivo, barnyard grass (Echinochloa crus-galli)
Outline: as §3

[27] = tested on: southern crabgrass; assay: Test Example 4: herbicidal effect by soil treatment (Table 19, symbol F); type: in vivo, southern crabgrass (Digitaria ciliaris)
Outline: as §3

[28] = tested on: lambsquarters; assay: Test Example 4: herbicidal effect by soil treatment (Table 19, symbol O); type: in vivo, lambsquarters (Chenopodium album)
Outline: as §3

[29] = tested on: blackgrass; assay: Test Example 4: herbicidal effect by soil treatment (Table 19, symbol J); type: in vivo, blackgrass (Alopecurus myosuroides)
Outline: as §3

[30] = tested on: velvetleaf; assay: Test Example 5: herbicidal effect by foliage application, plastic box (Table 20, symbol M); type: in vivo, velvetleaf (Abutilon theophrasti); settings: foliage application, 320 g/ha
Outline: as §1

[31] = tested on: chickweed; assay: Test Example 5: herbicidal effect by foliage application, plastic box (Table 20, symbol P); type: in vivo, common chickweed (Stellaria media); settings: foliage application, 320 g/ha, evaluated three weeks after application
Outline: as §1

[32] = evaluated three weeks after application
[33] = amount of applied herbicide 320 g/ha

Structure (SMILES): COc1nn(C)c(=O)c(-c2c(-c3ccc4c(c3)OCCO4)sc3ccccc23)c1O [1-198]
- effect on barnyard grass (H) ([1]; 3 weeks after application): 2 (Herbicidal rate of 20% or more and less than 40%)
- effect on false cleavers (Q) ([2]; 3 weeks after application): 1 (Herbicidal rate of 5% or more and less than 20%)
- Herbicidal effect on A: late watergrass (grade 0-5) [3]: 3 (Herbicidal rate of 40% or more and less than 70%)
- G: green foxtail, herbicidal effect rating ([4]; AAH 320 g/ha): 5 (Herbicidal rate of 90% or more (almost completely withered))
- K: Italian ryegrass, herbicidal effect rating ([5]; AAH 320 g/ha): 0 (Herbicidal rate of 5% or less (almost no effect))
- M: velvetleaf, herbicidal effect rating ([6]; AAH 320 g/ha): 5 (Herbicidal rate of 90% or more (almost completely withered))
- effect on lambsquarters (O) ([7]; 3 weeks after application): 2 (Herbicidal rate of 20% or more and less than 40%)
- Herbicidal effect on C: oval-leafed pondweed (grade 0-5) [8]: 0 (Herbicidal rate of 5% or less (almost no effect))
- effect on windgrass (L) [9]: 0 (Herbicidal rate of 5% or less (almost no effect))
- effect on wild oat (I) ([10]; 3 weeks after application): 0 (Herbicidal rate of 5% or less (almost no effect))
- effect on southern crabgrass (F) ([11]; 3 weeks after application): 4 (Herbicidal rate of 70% or more and less than 90%)
- herbicidal effect on H (barnyard grass), rating 0-5 ([12]; 320 g/ha): 5 (Herbicidal rate of 90% or more (almost completely withered))
- I: wild oat, herbicidal effect rating ([13]; AAH 320 g/ha): 0 (Herbicidal rate of 5% or less (almost no effect))
- Herbicidal effect on B: Japanese bulrush (grade 0-5) [14]: 0 (Herbicidal rate of 5% or less (almost no effect))
- R: persian speedwell, herbicidal effect rating ([15]; AAH 320 g/ha): 5 (Herbicidal rate of 90% or more (almost completely withered))
- N: redroot pigweed, herbicidal effect rating ([16]; AAH 320 g/ha): 0 (Herbicidal rate of 5% or less (almost no effect))
- effect on green foxtail (G) ([17]; 3 weeks after application): 4 (Herbicidal rate of 70% or more and less than 90%)
- P: chickweed, herbicidal effect rating ([18]; AAH 320 g/ha): 5 (Herbicidal rate of 90% or more (almost completely withered))
- L: windgrass, herbicidal effect rating ([19]; AAH 320 g/ha): 0 (Herbicidal rate of 5% or less (almost no effect))
- effect on Italian ryegrass (K) ([20]; 3 weeks after application): 4 (Herbicidal rate of 70% or more and less than 90%)
- effect on blackgrass (J) ([21]; 3 weeks after application): 0 (Herbicidal rate of 5% or less (almost no effect))
- effect on persian speedwell (R) ([22]; 3 weeks after application): 5 (Herbicidal rate of 90% or more (almost completely withered))
- Q: false cleavers, herbicidal effect rating ([23]; AAH 320 g/ha): 1 (Herbicidal rate of 5% or more and less than 20%)
- herbicidal effect on D (Chinese sprangletop), rating 0-5 ([24]; 320 g/ha): 3 (Herbicidal rate of 40% or more and less than 70%)
- herbicidal effect on E (rice flat sedge), rating 0-5 ([25]; 320 g/ha): 5 (Herbicidal rate of 90% or more (almost completely withered))
- H: barnyard grass, herbicidal effect rating ([26]; AAH 320 g/ha): 2 (Herbicidal rate of 20% or more and less than 40%)
- F: southern crabgrass, herbicidal effect rating ([27]; AAH 320 g/ha): 0 (Herbicidal rate of 5% or less (almost no effect))
- O: lambsquarters, herbicidal effect rating ([28]; AAH 320 g/ha): 0 (Herbicidal rate of 5% or less (almost no effect))
- J: blackgrass, herbicidal effect rating ([29]; AAH 320 g/ha): 0 (Herbicidal rate of 5% or less (almost no effect))
- effect on velvetleaf (M) ([30]; 3 weeks after application): 4 (Herbicidal rate of 70% or more and less than 90%)

Structure (SMILES): CCCC(=O)Oc1c(C)nn(C)c(=O)c1-c1c(-c2ccc(F)cc2OC)sc2ccc(C)cc12 [2-149]
- herbicidal effect on H: barnyard grass (criteria 0-5) [1, 32]: 3 (Herbicidal rate of 40% or more and less than 70%)
- herbicidal effect on Q: false cleavers (criteria 0-5) [2, 32]: 3 (Herbicidal rate of 40% or more and less than 70%)
- Herbicidal effect on A: late watergrass (grade 0-5) [3]: 3 (Herbicidal rate of 40% or more and less than 70%)
- G: green foxtail, herbicidal effect rating [4, 33]: 4 (Herbicidal rate of 70% or more and less than 90%)
- K: Italian ryegrass, herbicidal effect rating [5, 33]: 0 (Herbicidal rate of 5% or less (almost no effect))
- M: velvetleaf, herbicidal effect rating [6, 33]: 0 (Herbicidal rate of 5% or less (almost no effect))
- herbicidal effect on O: lambsquarters (criteria 0-5) [7, 32]: 4 (Herbicidal rate of 70% or more and less than 90%)
- Herbicidal effect on C: oval-leafed pondweed (grade 0-5) [8]: 0 (Herbicidal rate of 5% or less (almost no effect))
- herbicidal effect on I: wild oat (criteria 0-5) [10, 32]: 1 (Herbicidal rate of 5% or more and less than 20%)
- herbicidal effect on F: southern crabgrass (criteria 0-5) [11, 32]: 3 (Herbicidal rate of 40% or more and less than 70%)
- herbicidal effect on H: barnyard grass [12, 33]: 5 (Herbicidal rate of 90% or more (almost completely withered))
- I: wild oat, herbicidal effect rating [13, 33]: 0 (Herbicidal rate of 5% or less (almost no effect))
- Herbicidal effect on B: Japanese bulrush (grade 0-5) [14]: 1 (Herbicidal rate of 5% or more and less than 20%)
- R: persian speedwell, herbicidal effect rating [15, 33]: 3 (Herbicidal rate of 40% or more and less than 70%)
- N: redroot pigweed, herbicidal effect rating [16, 33]: 5 (Herbicidal rate of 90% or more (almost completely withered))
- herbicidal effect on G: green foxtail (criteria 0-5) [17, 32]: 5 (Herbicidal rate of 90% or more (almost completely withered))
- P: chickweed, herbicidal effect rating [18, 33]: 3 (Herbicidal rate of 40% or more and less than 70%)
- L: windgrass, herbicidal effect rating [19, 33]: 0 (Herbicidal rate of 5% or less (almost no effect))
- herbicidal effect on K: Italian ryegrass (criteria 0-5) [20, 32]: 0 (Herbicidal rate of 5% or less (almost no effect))
- herbicidal effect on J: blackgrass (criteria 0-5) [21, 32]: 2 (Herbicidal rate of 20% or more and less than 40%)
- herbicidal effect on R: persian speedwell (criteria 0-5) [22, 32]: 3 (Herbicidal rate of 40% or more and less than 70%)
- Q: false cleavers, herbicidal effect rating [23, 33]: 3 (Herbicidal rate of 40% or more and less than 70%)
- herbicidal effect on D: Chinese sprangletop [24, 33]: 0 (Herbicidal rate of 5% or less (almost no effect))
- herbicidal effect on E: rice flat sedge [25, 33]: 3 (Herbicidal rate of 40% or more and less than 70%)
- H: barnyard grass, herbicidal effect rating [26, 33]: 0 (Herbicidal rate of 5% or less (almost no effect))
- F: southern crabgrass, herbicidal effect rating [27, 33]: 0 (Herbicidal rate of 5% or less (almost no effect))
- O: lambsquarters, herbicidal effect rating [28, 33]: 4 (Herbicidal rate of 70% or more and less than 90%)
- J: blackgrass, herbicidal effect rating [29, 33]: 0 (Herbicidal rate of 5% or less (almost no effect))
- herbicidal effect on P: chickweed (criteria 0-5) [31]: 5 (Herbicidal rate of 90% or more (almost completely withered))
- herbicidal effect on M: velvetleaf (criteria 0-5) [30, 32]: 1 (Herbicidal rate of 5% or more and less than 20%)
